Data from patent publication US20250257053A1, “PESTICIDALLY ACTIVE HETEROCYCLIC DERIVATIVES WITH SULFUR CONTAINING SUBSTITUENTS” (SYNGENTA CROP PROTECTION AG, priority 2021, published 2025).

Tests used:
Format in all cases: in vivo
[1] = test system: Diabrotica Balteata (Corn Root Worm); assay: Activity against Diabrotica balteata (corn root worm), sprayed maize sprouts on agar; conditions: 96 h, application rate 200 ppm, L2 larvae, 4 days after infestation, in comparison to untreated samples, read-out: effect in at least one of the two categories (mortality or growth inhibition)
Procedure: Example B2: Activity Against Diabrotica Balteata (Corn Root Worm)
Maize sprouts placed onto an agar layer in 24-well microtiter plates were treated with aqueous test solutions prepared from 10′000 ppm DMSO stock solutions by spraying. After drying, the plates were infested with L2 larvae (6 to 10 per well). The samples were assessed for mortality and growth inhibition in comparison to untreated samples 4 days after infestation.

[2] = test system: Plutella xylostella (Diamond Back Moth); assay: Activity against Plutella xylostella (diamond back moth), artificial diet in 24-well microtiter plates; conditions: 192 h, application rate 200 ppm, eggs, 8 days after infestation, in comparison to untreated samples, read-out: effect in at least one of the two categories (mortality or growth inhibition)
Procedure: Example B6: Activity Against Plutella xylostella (Diamond Back Moth)
24-well microtiter plates with artificial diet were treated with aqueous test solutions prepared from 10′000 ppm DMSO stock solutions by pipetting. After drying, Plutella eggs were pipetted through a plastic stencil onto a gel blotting paper and the plate was closed with it. The samples were assessed for mortality and growth inhibition in comparison to untreated samples 8 days after infestation. The following compounds gave an effect of at least 80% in at least one of the two categories (mortality or growth inhibition) at an application rate of 200 ppm: P2, P3, P4, P5, P7, P9, P10, P11, P13, P14, P15.

[3] = test system: Euschistus heros (Neotropical Brown Stink Bug); assay: Activity against Euschistus heros (neotropical brown stink bug), sprayed soybean leaves on agar; conditions: 120 h, application rate 200 ppm, N2 nymphs, 5 days after infestation, in comparison to untreated samples, read-out: effect in at least one of the two categories (mortality or growth inhibition)
Procedure: Example B3: Activity Against Euschistus heros (Neotropical Brown Stink Bug)
Soybean leaves on agar in 24-well microtiter plates were sprayed with aqueous test solutions prepared from 10′000 ppm DMSO stock solutions. After drying the leaves were infested with N2 nymphs. The samples were assessed for mortality and growth inhibition in comparison to untreated samples 5 days after infestation.

[4] = test system: Chilo suppressalis (Striped Rice Stemborer); assay: Activity against Chilo suppressalis (striped rice stemborer), artificial diet in 24-well microtiter plates; conditions: 144 h, application rate 200 ppm, L2 larvae, 6 days after infestation, in comparison to untreated samples, read-out: control (at least one of mortality, anti-feedant effect, growth inhibition)
Procedure: Example B1: Activity Against Chilo suppressalis (Striped Rice Stemborer)
24-well microtiter plates with artificial diet were treated with aqueous test solutions prepared from 10′000 ppm DMSO stock solutions by pipetting. After drying, the plates were infested with L2 larvae (6-8 per well). The samples were assessed for mortality, anti-feeding effect, and growth inhibition in comparison to untreated samples 6 days after infestation. Control of Chilo suppressalis by a test sample is given when at least one of the categories mortality, anti-feedant effect, and growth inhibition is higher than the untreated sample.

[5] = test system: Spodoptera littoralis (Egyptian Cotton Leaf Worm); assay: Activity against Spodoptera littoralis (Egyptian cotton leaf worm), sprayed cotton leaf discs; conditions: foliar, 72 h, application rate 200 ppm, five L1 larvae, 3 days after infestation, in comparison to untreated samples, read-out: control (at least one of mortality, anti-feedant effect, growth inhibition)
Procedure: Example B7: Activity Against Spodoptera littoralis (Egyptian Cotton Leaf Worm)
Cotton leaf discs were placed onto agar in 24-well microtiter plates and sprayed with aqueous test solutions prepared from 10′000 ppm DMSO stock solutions. After drying the leaf discs were infested with five L1 larvae. The samples were assessed for mortality, anti-feeding effect, and growth inhibition in comparison to untreated samples 3 days after infestation. Control of Spodoptera littoralis by a test sample is given when at least one of the categories mortality, anti-feedant effect, and growth inhibition is higher than the untreated sample.

[6] = test system: Myzus persicae (Green Peach Aphid); assay: Activity against Myzus persicae (green peach aphid), feeding/contact activity, sunflower leaf discs; conditions: foliar, 144 h, application rate 200 ppm, aphid population of mixed ages, 6 days after infestation
Procedure: Example B4: Activity Against Myzus persicae (Green Peach Aphid) Feeding/Contact Activity
Sunflower leaf discs were placed onto agar in a 24-well microtiter plate and sprayed with aqueous test solutions prepared from 10′000 ppm DMSO stock solutions. After drying, the leaf discs were infested with an aphid population of mixed ages. The samples were assessed for mortality 6 days after infestation.

[7] = test system: Myzus persicae (Green Peach Aphid); assay: Activity against Myzus persicae (green peach aphid), systemic activity, pea seedling roots in test solution; conditions: 144 h, test rate 24 ppm, aphid population of mixed ages, 6 days after placing seedlings into test solutions
Procedure: Example B5: Activity Against Myzus persicae (Green Peach Aphid) Systemic Activity
Roots of pea seedlings infested with an aphid population of mixed ages were placed directly into aqueous test solutions prepared from 10′000 DMSO stock solutions. The samples were assessed for mortality 6 days after placing seedlings into test solutions.

CCS(=O)(=O)c1cc(C2(C#N)CC2)cnc1-c1coc2cc(OC(F)(F)F)ccc2c1=O [P15, 1-[5-ethylsulfonyl-6-[4-oxo-7-(trifluoromethoxy)chromen-3-yl]-3-pyridyl]-cyclopropane-carbonitrile]
≥ 80%: percent control (mortality or growth inhibition) at 200 ppm [1] | effect (mortality or growth inhibition) at 200 ppm [2] | percent control (mortality or growth inhibition) at 200 ppm [3] | percent control (mortality, anti-feedant effect or growth inhibition) at 200 ppm [4] | percent control (mortality, anti-feedant effect or growth inhibition) at 200 ppm [5] | mortality at 200 ppm [6]

CCS(=O)(=O)c1ccc(C2CC2)nc1-c1coc2cc(C(F)(F)F)ccc2c1=O [P10, 3-(6-cyclopropyl-3-ethylsulfonyl-2-pyridyl)-7-(trifluoromethyl) chromen-4-one]
≥ 80%: percent control (mortality or growth inhibition) at 200 ppm [1] | effect (mortality or growth inhibition) at 200 ppm [2] | percent control (mortality, anti-feedant effect or growth inhibition) at 200 ppm [4] | percent control (mortality, anti-feedant effect or growth inhibition) at 200 ppm [5] | mortality at 200 ppm [6]

CCS(=O)(=O)c1cc(Br)cnc1-c1c(C)oc2cc(C(F)(F)F)ccc2c1=O [P8, 3-(5-bromo-3-ethylsulfonyl-2-pyridyl)-2-methyl-7-(trifluoromethyl) chromen-4-one]
≥ 80%: percent control (mortality, anti-feedant effect or growth inhibition) at 200 ppm [4] | percent control (mortality, anti-feedant effect or growth inhibition) at 200 ppm [5]

CCS(=O)(=O)c1cc(C2CC2)cnc1-c1coc2cc(C(F)(F)F)ccc2c1=O [P11, 3-(5-cyclopropyl-3-ethylsulfonyl-2-pyridyl)-7-(trifluoromethyl) chromen-4-one]
≥ 80%: percent control (mortality or growth inhibition) at 200 ppm [1] | effect (mortality or growth inhibition) at 200 ppm [2] | mortality at 24 ppm [7] | percent control (mortality or growth inhibition) at 200 ppm [3] | percent control (mortality, anti-feedant effect or growth inhibition) at 200 ppm [4] | percent control (mortality, anti-feedant effect or growth inhibition) at 200 ppm [5] | mortality at 200 ppm [6]

CCS(=O)(=O)c1cc(C2(C#N)CC2)cnc1-c1coc2cc(C(F)(F)F)ccc2c1=O [P4, 1-[5-ethylsulfonyl-6-[4-oxo-7-(trifluoromethyl)chromen-3-yl]-3-pyridyl]cyclopropane-carbonitrile]
≥ 80%: percent control (mortality or growth inhibition) at 200 ppm [1] | effect (mortality or growth inhibition) at 200 ppm [2] | mortality at 24 ppm [7] | percent control (mortality or growth inhibition) at 200 ppm [3] | percent control (mortality, anti-feedant effect or growth inhibition) at 200 ppm [4] | percent control (mortality, anti-feedant effect or growth inhibition) at 200 ppm [5] | mortality at 200 ppm [6]

CCSc1cc(C2(C#N)CC2)cnc1-c1coc2cc(C(F)(F)F)ccc2c1=O [P3, 1-[5-ethylsulfanyl-6-[4-oxo-7-(trifluoromethyl)chromen-3-yl]-3-pyridyl]cyclopropane-carbonitrile]
≥ 80%: percent control (mortality or growth inhibition) at 200 ppm [1] | effect (mortality or growth inhibition) at 200 ppm [2] | percent control (mortality or growth inhibition) at 200 ppm [3] | percent control (mortality, anti-feedant effect or growth inhibition) at 200 ppm [5] | mortality at 200 ppm [6]

CCS(=O)(=O)c1cc(C2(C#N)CC2)cnc1-c1coc2cc(OC(F)F)ccc2c1=O [P13, 1-[6-[7-(difluoromethoxy)-4-oxo-chromen-3-yl]-5-ethylsulfonyl-3-pyridyl]-cyclo-propanecarbonitrile]
≥ 80%: percent control (mortality or growth inhibition) at 200 ppm [1] | effect (mortality or growth inhibition) at 200 ppm [2] | mortality at 24 ppm [7] | percent control (mortality or growth inhibition) at 200 ppm [3] | percent control (mortality, anti-feedant effect or growth inhibition) at 200 ppm [4] | percent control (mortality, anti-feedant effect or growth inhibition) at 200 ppm [5] | mortality at 200 ppm [6]

CCS(=O)(=O)c1cc(-c2ccc(F)cc2)cnc1-c1coc2cc(C(F)(F)F)ccc2c1=O [P16, 3-[3-ethylsulfonyl-5-(4-fluorophenyl)-2-pyridyl]-7-(trifluoromethyl)chromen-4-one]
≥ 80%: percent control (mortality, anti-feedant effect or growth inhibition) at 200 ppm [5]

CCS(=O)(=O)c1cc(Br)cnc1-c1coc2cc(C(F)(F)F)ccc2c1=O [P9, 3-(5-bromo-3-ethylsulfonyl-2-pyridyl)-7-(trifluoromethyl)-chromen-4-one]
≥ 80%: percent control (mortality or growth inhibition) at 200 ppm [1] | effect (mortality or growth inhibition) at 200 ppm [2] | percent control (mortality, anti-feedant effect or growth inhibition) at 200 ppm [4] | percent control (mortality, anti-feedant effect or growth inhibition) at 200 ppm [5]

CCS(=O)(=O)c1cc(C2(C#N)CC2)cnc1-c1c(C)oc2cc(C(F)(F)F)ccc2c1=O [P7, 1-[5-ethylsulfonyl-6-[2-methyl-4-oxo-7-(trifluoromethyl)chromen-3-yl]-3-pyridyl] cyclopropane-carbonitrile]
≥ 80%: percent control (mortality or growth inhibition) at 200 ppm [1] | effect (mortality or growth inhibition) at 200 ppm [2] | mortality at 24 ppm [7] | percent control (mortality or growth inhibition) at 200 ppm [3] | percent control (mortality, anti-feedant effect or growth inhibition) at 200 ppm [4] | percent control (mortality, anti-feedant effect or growth inhibition) at 200 ppm [5] | mortality at 200 ppm [6]

CCS(=O)(=O)c1cccnc1-c1coc2cc(C(F)(F)F)ccc2c1=O [P2, 3-(3-ethylsulfonyl-2-pyridyl)-7-(trifluoromethyl)chromen-4-one]
≥ 80%: percent control (mortality or growth inhibition) at 200 ppm [1] | effect (mortality or growth inhibition) at 200 ppm [2] | mortality at 24 ppm [7] | percent control (mortality or growth inhibition) at 200 ppm [3] | percent control (mortality, anti-feedant effect or growth inhibition) at 200 ppm [4] | percent control (mortality, anti-feedant effect or growth inhibition) at 200 ppm [5] | mortality at 200 ppm [6]

CCS(=O)(=O)c1cc(C2(C#N)CC2)cnc1-c1cn(C)c2cc(C(F)(F)F)ccc2c1=O [P14, 1-[5-ethylsulfonyl-6-[1-methyl-4-oxo-7-(trifluoromethyl)-3-quinolyl]-3-pyridyl]-cyclo-propanecarbonitrile]
≥ 80%: percent control (mortality or growth inhibition) at 200 ppm [1] | effect (mortality or growth inhibition) at 200 ppm [2] | mortality at 24 ppm [7] | percent control (mortality or growth inhibition) at 200 ppm [3] | percent control (mortality, anti-feedant effect or growth inhibition) at 200 ppm [4] | percent control (mortality, anti-feedant effect or growth inhibition) at 200 ppm [5] | mortality at 200 ppm [6]

CCS(=O)(=O)c1cc(C(C)(C)C#N)cnc1-c1coc2cc(C(F)(F)F)ccc2c1=O [P5, 2-[5-ethylsulfonyl-6-[4-oxo-7-(trifluoromethyl)chromen-3-yl]-3-pyridyl]-2-methyl-propane-nitrile]
≥ 80%: percent control (mortality or growth inhibition) at 200 ppm [1] | effect (mortality or growth inhibition) at 200 ppm [2] | mortality at 24 ppm [7] | percent control (mortality or growth inhibition) at 200 ppm [3] | percent control (mortality, anti-feedant effect or growth inhibition) at 200 ppm [4] | percent control (mortality, anti-feedant effect or growth inhibition) at 200 ppm [5] | mortality at 200 ppm [6]
